From US8796268B2, “Heteroaryls and uses thereof” (Millennium Pharmaceuticals, Inc., priority 2010, dated 2014) come the findings set out here.

What all share (format): biochemical
In one test the target is T1, Human PI3K delta (Homo sapiens, UniProt O00329).
T1 construct: His (N); host or cells: SF9 insect cells (baculovirus)
As to the kind of experiment: Human PI3K delta enzyme assay (HTRF). As to conditions: for inhibition at 1 µM: read-out: p110 delta Percent Inhibition. From the text:
(§1) The catalytic subunits of PI3Ks are cloned into either pDEST8(p110 alpha) or pDEST10(p110beta, p110delta, and p110gamma) as N-terminal His tagged fusion proteins using the Gateway system (Invitrogen, catalog#11804-010 for pDEST8 and 11806-015 for pDEST10). The sequences are verified before recombinant protein expression using the Baculovirus Expression System with Gateway® Technology. The accession numbers for the subunits are as follows: • p110 alpha (GB:U79143) • p110beta (GB: S67334) • p110delta (GB: U86453) • p110gamma (GB: X83368) • The regulatory subunits of PI3Ks are cloned into pDEST8 as un-tagged protein using the Gateway system (Catalog#11804-010). The sequences are verified before recombinant protein expression using the Baculovirus Expression System with Gateway® Technology. The accession numbers for the subunits are as following: • p85 alpha (GB: BC030815) • p101(GB: AB028925) • VPS34 (accession number GB:BC033004) is cloned into pDEST20—Thombin as N-terminal GST tagged fusion proteins using the Gateway system (Invitrogen, catalog#11804-013). The sequences are verified before recombinant protein expression using the Baculovirus Expression System with Gateway® Technology.
(§2) For expression of the p110 complexes, the p85 (MOI of 4) is co-infected with p110 alpha, beta, and delta respectively (1MOI) in SF9 cells and harvested at 60 hours post co-infection. P110 gamma was infected at 1 MOI and harvested at 60 hours post infection.
(§3) For purification, PI3Ks are purified by Ni-NTA Agarose (Qiagen #30250) followed by Mono Q 10/100 GL (Ge Healthcare #17-5167-01). VPS34 is purified by Glutathione Sepharose 4 Fast Flow (GE Healthcare #17-5132-03) followed by HiTrap Q (GE Healthcare #17-1153-01).
(§4) 0.5 uL compounds in DMSO are added to wells of a 384 well microtitre plate (Corning 3575). At room temperature: 10 ul PI3K reaction buffer (50 mM Hepes, 5 mM DTT, 150 mM NaCl, 10 mM beta-glycerophosphate, 10 mM MgCl2, 0.25 mM sodium cholate and 0.001% CHAPS, pH 7.00) containing ATP (25 uM, Promega) is added followed immediately by 10 ul PI3K reaction buffer containing di-C8 P1(4,5)P2 (3.5 uM, CellSignals) and PI3Kalpha (0.4875 nM, Millennium Protein Sciences Group) and the mixture is incubated with shaking at room temperature for 30 minutes. Then 5 ul PI3K stop mix (50 mM Hepes, 5 mM DTT, 150 mM NaCl, 0.01% Tween-20, 15 mM EDTA and 25 nM biotin-PI(3,4,5)P3 (Echelon) is added to quench the reaction followed immediately by addition of 5 ul HTRF detection mix (50 mM Hepes, 5 mM DTT, 150 mM NaCl, 0.01% Tween-20, 40 mM KF, 1.0 nM GST:GRP-1 PH domain (Millennium Protein Sciences Group), 15 nM Streptavidin-XL (CisBio) and 0.375 nM anti-GST Eu++ antibody (CisBio) at pH 7.00). The plates are then incubated for 1 hour at room temperature with shaking and then read on a BMG PheraStar Plus reader.
(§5) 2) Human PI3K beta, delta and gamma isoforms are tested using the procedure described for PI3K alpha above but with the following changes: PI3K beta (5.25 nM), PI3K delta (0.75 nM) and PI3K gamma (5 nM). All isoforms supplied by Millennium Protein Science Group.
(§6) For the assay methods described above, test compound percent inhibition, at various concentrations, is calculated relative to control (DMSO and EDTA) treated samples. Compound concentration versus percent inhibition curves are fitted to generate IC50 values. One skilled in the art will appreciate that the values generated either as percentage inhibition at a single concentration or IC50 values are subject to experimental variation.

In the next test the target is T2, Human PI3K beta (Homo sapiens, UniProt P42338).
T2 construct: His (N); host or cells: SF9 insect cells (baculovirus)
In words: Human PI3K beta enzyme assay (HTRF). The settings on record: for inhibition at 1.1 µM: read-out: p110 beta Percent Inhibition. The gist of the method:
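Compounds were mixed with 25 uM ATP, then with 3.5 uM di-C8 PI(4,5)P2 and His-tagged PI3K isoform (β 5.25 nM, δ 0.75 nM, γ 5 nM) at pH 7.00. After 30 min at room temperature, EDTA stopped the reaction and PIP3 was measured by HTRF over 1 h.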

For the next test, the target named is T3, Human PI3K gamma (Homo sapiens, UniProt P48736).
T3 construct: His (N); host or cells: SF9 insect cells (baculovirus)
As to the kind of experiment: Human PI3K gamma enzyme assay (HTRF). As to conditions: for inhibition at 1 µM: read-out: p110 gamma Percent Inhibition.
Source text: as §1, §2, §3, §4, §5, §6

For another test, the target named is T4, Human PI3K alpha (Homo sapiens, UniProt P42336).
T4 construct: His (N); host or cells: SF9 insect cells (baculovirus)
In words: Human PI3K alpha enzyme assay (HTRF). As to conditions: for inhibition at 1.1 µM: read-out: p110 alpha Percent Inhibition.

[1] abbreviates: concentration not given, b1389 states 1.0 μM for PI3K δ and γ.
Setting [2] is: concentration not given, b1387 states 1.1 μM for PI3K α and β.

Read-outs that look alike come from different tables or passages of the source.

T4 sequence (P42336 whole entry): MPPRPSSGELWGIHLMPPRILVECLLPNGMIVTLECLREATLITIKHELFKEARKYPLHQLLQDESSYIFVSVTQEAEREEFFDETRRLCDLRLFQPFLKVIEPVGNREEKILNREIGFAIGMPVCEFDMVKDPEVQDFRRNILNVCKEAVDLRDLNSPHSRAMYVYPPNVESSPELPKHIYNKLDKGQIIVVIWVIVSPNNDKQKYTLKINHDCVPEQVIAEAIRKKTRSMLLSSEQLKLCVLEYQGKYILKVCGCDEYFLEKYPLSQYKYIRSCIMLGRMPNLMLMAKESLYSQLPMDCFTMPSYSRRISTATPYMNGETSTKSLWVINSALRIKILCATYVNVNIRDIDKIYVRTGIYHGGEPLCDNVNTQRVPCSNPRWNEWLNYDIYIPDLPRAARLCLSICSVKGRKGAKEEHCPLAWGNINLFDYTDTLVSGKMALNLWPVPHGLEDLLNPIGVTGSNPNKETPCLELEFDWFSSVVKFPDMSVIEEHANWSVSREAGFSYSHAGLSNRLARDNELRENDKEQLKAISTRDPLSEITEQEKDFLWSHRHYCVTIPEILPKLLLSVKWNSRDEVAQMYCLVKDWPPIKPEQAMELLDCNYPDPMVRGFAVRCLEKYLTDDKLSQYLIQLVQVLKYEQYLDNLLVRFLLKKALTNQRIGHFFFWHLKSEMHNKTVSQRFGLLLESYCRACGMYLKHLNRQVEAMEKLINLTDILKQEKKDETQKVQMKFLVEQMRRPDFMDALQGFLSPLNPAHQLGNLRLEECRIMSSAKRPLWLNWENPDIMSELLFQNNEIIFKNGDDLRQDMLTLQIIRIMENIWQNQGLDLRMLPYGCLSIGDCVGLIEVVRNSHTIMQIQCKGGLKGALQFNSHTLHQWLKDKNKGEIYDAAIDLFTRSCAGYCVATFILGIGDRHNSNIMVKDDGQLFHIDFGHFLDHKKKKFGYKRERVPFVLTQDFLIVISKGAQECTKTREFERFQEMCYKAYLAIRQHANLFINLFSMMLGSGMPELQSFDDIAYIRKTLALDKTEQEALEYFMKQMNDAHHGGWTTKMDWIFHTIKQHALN
T4 sequence (P27986 whole entry partner): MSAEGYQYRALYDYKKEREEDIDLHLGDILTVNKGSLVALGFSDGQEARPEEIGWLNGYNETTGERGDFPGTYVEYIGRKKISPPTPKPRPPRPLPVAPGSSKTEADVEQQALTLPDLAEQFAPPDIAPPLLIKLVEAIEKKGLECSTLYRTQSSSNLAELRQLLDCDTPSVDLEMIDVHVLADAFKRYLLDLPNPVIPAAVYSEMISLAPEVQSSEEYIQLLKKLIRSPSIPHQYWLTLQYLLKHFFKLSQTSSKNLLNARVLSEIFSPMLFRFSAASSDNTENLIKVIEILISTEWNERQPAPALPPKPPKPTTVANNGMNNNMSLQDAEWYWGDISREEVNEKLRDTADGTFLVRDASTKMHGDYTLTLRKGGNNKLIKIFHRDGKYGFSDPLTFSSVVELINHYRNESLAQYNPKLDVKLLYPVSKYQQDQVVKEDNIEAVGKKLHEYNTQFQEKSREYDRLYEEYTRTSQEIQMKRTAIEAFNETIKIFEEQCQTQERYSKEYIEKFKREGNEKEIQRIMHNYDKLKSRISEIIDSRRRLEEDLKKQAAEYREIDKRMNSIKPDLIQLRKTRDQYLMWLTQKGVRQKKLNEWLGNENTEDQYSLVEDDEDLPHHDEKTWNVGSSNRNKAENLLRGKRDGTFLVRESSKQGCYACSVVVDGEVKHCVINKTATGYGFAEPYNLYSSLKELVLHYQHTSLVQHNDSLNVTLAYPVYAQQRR
T1 sequence (O00329 whole entry): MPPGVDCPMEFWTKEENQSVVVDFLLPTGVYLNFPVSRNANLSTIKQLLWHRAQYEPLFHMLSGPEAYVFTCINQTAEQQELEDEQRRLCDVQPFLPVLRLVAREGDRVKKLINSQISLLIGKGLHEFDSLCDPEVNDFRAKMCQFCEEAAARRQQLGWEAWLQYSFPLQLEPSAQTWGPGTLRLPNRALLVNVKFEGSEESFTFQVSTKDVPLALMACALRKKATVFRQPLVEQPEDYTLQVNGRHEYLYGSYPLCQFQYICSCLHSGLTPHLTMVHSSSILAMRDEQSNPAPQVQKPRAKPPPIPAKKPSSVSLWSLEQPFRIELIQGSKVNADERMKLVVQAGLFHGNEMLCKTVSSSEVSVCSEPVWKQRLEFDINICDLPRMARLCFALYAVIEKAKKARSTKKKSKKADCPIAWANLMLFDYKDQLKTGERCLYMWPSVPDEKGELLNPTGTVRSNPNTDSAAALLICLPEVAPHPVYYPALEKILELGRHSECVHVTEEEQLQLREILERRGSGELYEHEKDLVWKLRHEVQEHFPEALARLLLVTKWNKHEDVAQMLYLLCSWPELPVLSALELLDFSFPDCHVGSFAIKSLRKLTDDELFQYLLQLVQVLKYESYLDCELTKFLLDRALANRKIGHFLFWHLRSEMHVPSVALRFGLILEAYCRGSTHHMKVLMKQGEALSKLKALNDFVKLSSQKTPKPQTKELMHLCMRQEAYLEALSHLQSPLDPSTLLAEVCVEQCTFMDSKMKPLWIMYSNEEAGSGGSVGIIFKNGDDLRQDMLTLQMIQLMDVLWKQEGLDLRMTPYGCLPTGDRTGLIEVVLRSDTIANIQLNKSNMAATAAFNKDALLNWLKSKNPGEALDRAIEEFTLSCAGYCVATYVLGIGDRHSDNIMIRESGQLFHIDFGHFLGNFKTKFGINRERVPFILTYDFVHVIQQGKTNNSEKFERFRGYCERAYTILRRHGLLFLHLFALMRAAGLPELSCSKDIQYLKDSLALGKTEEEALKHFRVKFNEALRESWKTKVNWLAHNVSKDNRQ
T1 sequence (P27986 whole entry partner): as the sequence (P27986 whole entry partner) above
T2 sequence (P42338 whole entry): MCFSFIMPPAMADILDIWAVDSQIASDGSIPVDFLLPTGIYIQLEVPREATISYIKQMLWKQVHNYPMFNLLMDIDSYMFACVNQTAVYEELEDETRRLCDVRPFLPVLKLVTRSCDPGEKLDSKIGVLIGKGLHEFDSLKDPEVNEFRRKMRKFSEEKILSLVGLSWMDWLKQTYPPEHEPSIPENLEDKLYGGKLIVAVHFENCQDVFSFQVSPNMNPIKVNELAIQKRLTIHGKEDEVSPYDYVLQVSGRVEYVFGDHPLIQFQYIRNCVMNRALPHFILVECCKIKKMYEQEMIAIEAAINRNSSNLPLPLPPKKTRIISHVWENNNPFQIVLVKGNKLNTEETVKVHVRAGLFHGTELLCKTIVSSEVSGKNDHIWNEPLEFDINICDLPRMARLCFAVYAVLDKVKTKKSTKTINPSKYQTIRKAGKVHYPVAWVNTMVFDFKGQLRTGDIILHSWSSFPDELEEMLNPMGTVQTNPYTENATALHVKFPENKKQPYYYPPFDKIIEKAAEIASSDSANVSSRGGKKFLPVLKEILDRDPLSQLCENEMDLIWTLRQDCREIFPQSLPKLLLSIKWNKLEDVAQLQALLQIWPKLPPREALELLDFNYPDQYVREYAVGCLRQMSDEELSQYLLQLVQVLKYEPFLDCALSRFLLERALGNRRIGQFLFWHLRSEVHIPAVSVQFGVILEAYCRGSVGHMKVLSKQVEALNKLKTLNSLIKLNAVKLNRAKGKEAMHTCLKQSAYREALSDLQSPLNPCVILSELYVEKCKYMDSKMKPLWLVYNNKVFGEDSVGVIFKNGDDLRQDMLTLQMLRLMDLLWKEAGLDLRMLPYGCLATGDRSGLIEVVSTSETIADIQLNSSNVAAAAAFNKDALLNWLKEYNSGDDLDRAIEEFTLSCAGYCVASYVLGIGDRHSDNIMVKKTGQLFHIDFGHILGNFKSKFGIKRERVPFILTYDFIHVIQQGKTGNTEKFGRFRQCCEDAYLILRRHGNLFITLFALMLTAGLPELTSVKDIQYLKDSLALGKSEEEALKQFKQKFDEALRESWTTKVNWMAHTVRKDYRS
T2 sequence (P27986 whole entry partner): as the sequence (P27986 whole entry partner) above
T3 sequence (P48736 whole entry): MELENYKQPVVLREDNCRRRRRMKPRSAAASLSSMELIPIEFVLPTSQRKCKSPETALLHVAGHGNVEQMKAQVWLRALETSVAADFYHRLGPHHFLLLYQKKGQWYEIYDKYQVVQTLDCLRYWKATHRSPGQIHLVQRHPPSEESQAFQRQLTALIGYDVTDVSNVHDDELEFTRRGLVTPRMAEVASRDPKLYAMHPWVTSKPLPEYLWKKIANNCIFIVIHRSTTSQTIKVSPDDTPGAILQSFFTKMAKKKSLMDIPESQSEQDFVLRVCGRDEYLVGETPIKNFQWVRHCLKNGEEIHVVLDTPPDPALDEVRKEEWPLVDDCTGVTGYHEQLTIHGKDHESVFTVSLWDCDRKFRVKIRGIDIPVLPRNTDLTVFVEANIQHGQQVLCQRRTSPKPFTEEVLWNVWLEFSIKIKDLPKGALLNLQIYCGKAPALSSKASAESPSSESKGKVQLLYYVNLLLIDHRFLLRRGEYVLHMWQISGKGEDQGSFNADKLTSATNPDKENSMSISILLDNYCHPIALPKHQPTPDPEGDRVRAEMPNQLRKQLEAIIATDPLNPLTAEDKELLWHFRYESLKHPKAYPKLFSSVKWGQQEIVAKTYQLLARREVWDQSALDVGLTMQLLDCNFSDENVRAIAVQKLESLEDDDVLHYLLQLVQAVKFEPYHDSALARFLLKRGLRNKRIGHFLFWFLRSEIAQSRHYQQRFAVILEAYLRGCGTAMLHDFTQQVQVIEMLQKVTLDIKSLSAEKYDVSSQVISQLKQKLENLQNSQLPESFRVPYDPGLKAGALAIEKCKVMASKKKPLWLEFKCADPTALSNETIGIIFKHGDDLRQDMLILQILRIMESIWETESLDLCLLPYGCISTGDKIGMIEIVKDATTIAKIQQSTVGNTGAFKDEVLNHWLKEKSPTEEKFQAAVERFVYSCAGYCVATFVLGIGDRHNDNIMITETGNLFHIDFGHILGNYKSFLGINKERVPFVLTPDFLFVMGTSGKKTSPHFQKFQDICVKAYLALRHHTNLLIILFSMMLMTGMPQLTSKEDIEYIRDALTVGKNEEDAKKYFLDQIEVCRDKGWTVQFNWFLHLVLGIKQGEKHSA

On to `COc1ccc(C(O)c2cc(-c3ccncc3)sc2-c2nnc[nH]2)c(F)c1` (stereo not drawn) [Compound 264], for which the inhibition at 1 µM came to 100% at Human PI3K delta (setting [1]) and 28% on Human PI3K gamma (setting [1]). Moreover, the inhibition at 1.1 µM is 99% on Human PI3K beta (setting [2]) and 32% on Human PI3K alpha (setting [2]).

With `OC(c1ccc(Cl)c(F)c1)c1cc(-c2ccncc2)sc1-c1nnc[nH]1` (stereo not drawn) [Compound 232], the inhibition at 1 µM is 67% on Human PI3K delta (setting [1]) and 26% on Human PI3K gamma (setting [1]). In addition, the inhibition at 1.1 µM on Human PI3K beta (setting [2]) was 105%; on Human PI3K alpha (setting [2]), 38%.

Regarding `CC(=O)Nc1cc(-c2cc([C@@H](c3ccc(Cl)cc3)N(C)C)c(-c3nnc[nH]3)s2)ccn1` (single isomer, unassigned) [Compound 204], the inhibition at 1 µM came out at 90% on Human PI3K delta (setting [1]) and 25% on Human PI3K gamma (setting [1]). The inhibition at 1.1 µM on Human PI3K beta (setting [2]) came out at 101%; at Human PI3K alpha (setting [2]), 70%.

Turning to `CC(=O)Nc1cc(-c2cc(C(NC(C)C)c3ccc(Cl)cc3)c(-c3nnc[nH]3)s2)ccn1` (stereo not drawn) [Compound 244], the inhibition at 1 µM on Human PI3K delta (setting [1]) came to 101%; on Human PI3K gamma (setting [1]) it was 14%. The inhibition at 1.1 µM on Human PI3K beta (setting [2]) was 101%; at Human PI3K alpha (setting [2]) it was 77%.

On to `CC(c1ccc2ccccc2c1)c1c(C(=O)O)sc(N2CCOCC2)c1C#N` (stereo not drawn) [Compound 367, 4-cyano-5-(morpholin-4-yl)-3-[1-(2-naphthyl)ethyl]thiophene-2-carboxylic acid], for which the values for the inhibition at 1 µM at Human PI3K delta and on Human PI3K gamma were 116% and 72%, respectively. Moreover, the inhibition at 1.1 µM at Human PI3K beta worked out at 110%; on Human PI3K alpha, 99%.

On to `Cc1c(F)cccc1C(O)c1cc(-c2ccncc2)sc1-c1nnc[nH]1` (stereo not drawn) [Compound 138], for which the inhibition at 1 µM on Human PI3K delta (setting [1]) came out at 69%; on Human PI3K gamma (setting [1]), 13%. Further, the figures for the inhibition at 1.1 µM on Human PI3K beta (setting [2]) and on Human PI3K alpha (setting [2]) were 86% and 43%, respectively.

`OC(c1ccc(Cl)cc1)c1cc(-c2ccnc(Nc3ncco3)c2)sc1-c1nnc[nH]1` (stereo not drawn) [Compound 147]: the inhibition at 1 µM amounted to 107% on Human PI3K delta (setting [1]) and 18% at Human PI3K gamma (setting [1]). Moreover, the inhibition at 1.1 µM on Human PI3K beta (setting [2]) turned out to be 96%; on Human PI3K alpha (setting [2]), 83%.

For `O=C(O)c1sc(N2CCOCC2)c(C#Cc2ccccc2)c1Cc1ccc(Cl)c(Cl)c1` [Compound 296, 3-(3,4-dichlorobenzyl)-5-(morpholin-4-yl)-4-(phenylethynyl)thiophene-2-carboxylic acid], the inhibition at 1 µM on Human PI3K delta (setting [1]) worked out at 107%; on Human PI3K gamma (setting [1]), 14%. The inhibition at 1.1 µM stood at 79% at Human PI3K beta (setting [2]) and 37% on Human PI3K alpha (setting [2]).

As for `CC(=O)Nc1cc(-c2cc(C(c3ccc(Cl)cc3)N3CCN(CC(F)(F)F)CC3)c(-c3nnc[nH]3)s2)ccn1` (stereo not drawn) [Compound 157], the values for the inhibition at 1 µM on Human PI3K delta (setting [1]) and at Human PI3K gamma (setting [1]) were 101% and 7%, respectively. Besides, the inhibition at 1.1 µM at Human PI3K beta (setting [2]) turned out to be 68%; at Human PI3K alpha (setting [2]), 55%.

With `CC(=O)Nc1cc(-c2cc(C(OC[C@@H]3CCCN3)c3ccc(Cl)cc3)c(-c3nnc[nH]3)s2)ccn1` (stereo partly drawn) [Compound 242], the figures for the inhibition at 1 µM at Human PI3K delta (setting [1]) and on Human PI3K gamma (setting [1]) were 112% and 36%, respectively. The inhibition at 1.1 µM at Human PI3K beta (setting [2]) is 104%; at Human PI3K alpha (setting [2]) it was 81%.

In the case of `OC(c1cc(-c2ccncc2)sc1-c1nnc[nH]1)c1cccc2ccccc12` (stereo not drawn) [Compound 228], the inhibition at 1 µM on Human PI3K delta (setting [1]) turned out to be 57%; at Human PI3K gamma (setting [1]), 11%. The inhibition at 1.1 µM amounted to 94% on Human PI3K beta (setting [2]) and 24% on Human PI3K alpha (setting [2]).

Regarding `O=C(O)c1[se]c(N2CCOCC2)nc1Cc1ccc(Cl)cc1` [Compound 370, 4-(4-chlorobenzyl)-2-morpholino-1,3-selenazole-5-carboxylic acid], the inhibition at 1 µM on Human PI3K delta was 62%; at Human PI3K gamma, 12%. The inhibition at 1.1 µM at Human PI3K beta came to 98%; at Human PI3K alpha, 22%.

Consider `CC(=O)NC(c1ccc(Cl)cc1)c1c(C(=O)O)sc(N2CCOCC2)c1C#N` (stereo not drawn) [Compound 353], for which the inhibition at 1 µM is 80% at Human PI3K delta (setting [1]) and 15% at Human PI3K gamma (setting [1]). The inhibition at 1.1 µM was 87% on Human PI3K beta (setting [2]) and 19% on Human PI3K alpha (setting [2]).

With `NCc1c[nH]c(-c2sc(-c3ccncc3)nc2Cc2ccc(Cl)cc2)n1` [Compound 255, (2-(4-(4-chlorobenzyl)-2-(pyridin-4-yl)thiazol-5-yl)-1H-imidazol-4-yl)methanamine], the “p110 delta Percent Inhibition” value on Human PI3K delta (setting [1]) was 39%. In addition, the “p110 beta Percent Inhibition” value on Human PI3K beta (setting [2]) was determined as 55%. Also, the “p110 gamma Percent Inhibition” value at Human PI3K gamma (setting [1]) stood at 5%. Besides, the “p110 alpha Percent Inhibition” value on Human PI3K alpha (setting [2]) came out at 0%.

As to `COc1ccc2ccc(Cc3c(C(=O)O)sc(N4CCOCC4)c3C#N)cc2c1` [Compound 361], the inhibition at 1 µM turned out to be 111% on Human PI3K delta (setting [1]) and 60% on Human PI3K gamma (setting [1]). Moreover, the results for the inhibition at 1.1 µM at Human PI3K beta (setting [2]) and on Human PI3K alpha (setting [2]) were 115% and 104%, respectively.

Turning to `CC(=O)Nc1cc(-c2cc(C(NCCO)c3ccc(Cl)cc3)c(-c3nnc[nH]3)s2)ccn1` (stereo not drawn) [Compound 226], the inhibition at 1 µM at Human PI3K delta (setting [1]) amounted to 93%; on Human PI3K gamma (setting [1]), 14%. Besides, the figures for the inhibition at 1.1 µM on Human PI3K beta (setting [2]) and at Human PI3K alpha (setting [2]) were 98% and 46%, respectively.

In the case of `OC(c1ccc2c(c1)OCCO2)c1cc(-c2ccncc2)sc1-c1nnc[nH]1` (stereo not drawn) [Compound 215], the inhibition at 1 µM is 51% at Human PI3K delta (setting [1]) and 8% on Human PI3K gamma (setting [1]). Besides, the inhibition at 1.1 µM was 85% at Human PI3K beta (setting [2]) and 29% on Human PI3K alpha (setting [2]).

For `CC(=O)Nc1cc(-c2cc(C(c3ccc(Cl)cc3)N3CCN(S(C)(=O)=O)CC3)c(-c3nnc[nH]3)s2)ccn1` (stereo not drawn) [Compound 224], the inhibition at 1 µM at Human PI3K delta (setting [1]) was 103%; at Human PI3K gamma (setting [1]), 15%. Moreover, the inhibition at 1.1 µM on Human PI3K beta (setting [2]) was 92%; on Human PI3K alpha (setting [2]) it was 70%.

For the compound `N#Cc1c(-c2ccncc2)sc(C(=O)O)c1Cc1ccc2ccccc2c1` [Compound 143], the inhibition at 1 µM worked out at 85% at Human PI3K delta (setting [1]) and 62% at Human PI3K gamma (setting [1]). Further, the inhibition at 1.1 µM on Human PI3K beta (setting [2]) stood at 115%; at Human PI3K alpha (setting [2]) it was 58%.

Regarding `N#Cc1c(-c2ccnnc2)sc(-c2nnc[nH]2)c1C(c1ccc2ccccc2c1)N1CCNCC1` (stereo not drawn) [Compound 172], the inhibition at 1 µM at Human PI3K delta (setting [1]) came to 60%; on Human PI3K gamma (setting [1]), 6%. Further, the figures for the inhibition at 1.1 µM on Human PI3K beta (setting [2]) and on Human PI3K alpha (setting [2]) were 101% and 28%, respectively.

As for `CC(=O)Nc1cc(-c2cc(/C(=C/CCN(C)C)c3ccc(Cl)cc3)c(-c3nnc[nH]3)s2)ccn1` [Compound 225], the values for the inhibition at 1 µM at Human PI3K delta (setting [1]) and on Human PI3K gamma (setting [1]) were 84% and 51%, respectively. For the same compound, the inhibition at 1.1 µM at Human PI3K beta (setting [2]) is 52%; on Human PI3K alpha (setting [2]), 51%.
